The record followed here is ChEMBL document CHEMBL1137601, “Catalysis of zinc transfer by D-penicillamine to secondary chelators” (J Med Chem, 2007).

SMILES strings stand for the structures.

Test [1] concerns the target T1, Carboxypeptidase A1 (Bos taurus) (UniProt P00730).
T1 sequence (whole entry): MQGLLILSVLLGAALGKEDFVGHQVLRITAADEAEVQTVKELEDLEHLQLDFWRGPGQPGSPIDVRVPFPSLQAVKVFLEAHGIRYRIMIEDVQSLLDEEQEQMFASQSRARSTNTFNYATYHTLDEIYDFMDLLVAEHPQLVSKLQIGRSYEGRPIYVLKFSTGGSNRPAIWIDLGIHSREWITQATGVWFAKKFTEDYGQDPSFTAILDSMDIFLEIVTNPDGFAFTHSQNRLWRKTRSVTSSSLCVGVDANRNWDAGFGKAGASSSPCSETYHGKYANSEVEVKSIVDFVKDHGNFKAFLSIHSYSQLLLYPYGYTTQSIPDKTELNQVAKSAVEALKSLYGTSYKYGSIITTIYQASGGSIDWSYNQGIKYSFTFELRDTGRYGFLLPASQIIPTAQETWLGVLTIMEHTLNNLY
Nature of the test: Inhibition of bovine ZnCPD pretreated at 0.25 mM assessed as residual enzyme activity in presence of 1 mM ethylenediaminetetraacetic acid within 20 mins.

Test [2] has as its target T1, Carboxypeptidase A1 (Bos taurus). Nature of the test: Inhibition of bovine ZnCPD pretreated at 5 mM assessed as residual enzyme activity in presence of 1 mM ethylenediaminetetraacetic acid within 7 mins.
For test [3] the target is unchanged. Briefly: Inhibition of bovine ZnCPD pretreated for 200 seconds at 1.5 mM assessed as transfer of zinc(II) from ZnCPD to chelator 4-(2-pyridylazo)-resorcinol. Also noted: scale not given: the % may be the effect or the level left.
The target is the same in test [4]. Briefly: Inhibition of bovine ZnCPD pretreated at 0.25 mM assessed as residual enzyme activity in presence of 2.5 uM thionenin after 17 mins.

Regarding `CC(C)(S)[C@@H](N)C(=O)O`, the Activity was 1% in test [1], 0.1% in test [2], 45% in test [3] and 1.5% in test [4].
